For 17 compounds, EC50, Kd and IC50 results are on record in patent US20200385371A1 (Propellon Therapeutics Inc., priority 2017, published 2020).

Where a name gives a salt, the structure may show the parent alone.

For experiment [1], the system named is MV4-11 cells. In words: Cell proliferation assay (ATPlite). The note with it: Homo sapiens, 120 h; MV4-11 cells, five days; read-out: GI MV411 EC50. It is filed as cell-based. The essentials:
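Cells seeded at 1,000/well in Alpha-MEM with 10% FBS, treated with compound over a 10-point range (top 10 μM) or DMSO. Grown five days at 37° C, 5% CO2; viability by ATPlite luminescence.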
Background: ATP-based viability assays read luminescence as a measure of living cells.

Experiment [2] has as its target T1, WDR5 (Homo sapiens, UniProt P61964). Kind of experiment: Surface Plasmon Resonance (SPR) assay. In kind it is binding. Further details: Full length WDR5 with an N-terminal His tag and C-terminal AviTag; His tag (N); made in house; host or cells: E. coli. As to conditions: read-out: SPR Kd. The essentials:
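Full-length biotinylated WDR5 (N-His, C-AviTag, E. coli) captured (~3000 RU) on streptavidin SA chip; Biacore T200. HBS-EP pH 7.4 plus 5% DMSO running buffer, 40 μl/min.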

Experiment [3] deals with T1, WDR5. In words: Fluorescence Polarization (FP) binding assay. The essentials:
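Displacement of fluorescein-labelled H3 (1-15) (30 nM, with 0.3 μM WDR5) or 9-Ala-FAM (20 nM, with 0.05 μM WDR5) in 80 mM sodium phosphate pH 6.5, 20 mM KCl, 0.008% Triton X-100. FP read at 485/528 nm (H3) or 480/540 nm (9-Ala-FAM); Kdisp from hyperbolic fit, mean of quadruplicates.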

For orientation: EC50 means the concentration giving half of the maximal effect. Broadly, the Kd is a measure of binding affinity in units of concentration. By IC50 is commonly meant the concentration at which inhibition is half-maximal. For `C[C@@H]1CN(c2cc(F)c(-c3ccc(OC4CCOCC4)nc3)c(F)c2NC(=O)c2c[nH]c(=O)cc2C(F)(F)F)C[C@H](C)N1C` [Example 65, N-(2,4-difluoro-3-(6-((tetrahydro-2H-pyran-4-yl)oxy)pyridin-3-yl)-6-((3S,5R)-3,4,5-trimethylpiperazin-1-yl)phenyl)-6-oxo-4-(trifluoromethyl)-1,6-dihydropyridine-3-carboxamide], in experiment [1], the EC50 turned out to be 33.8 nM. Moreover, the Kd in experiment [2] stood at 1.51 nM. Further, the IC50 in experiment [3] stood at 10.2 nM.
The matching figures for `CC(C)[C@@H]1CN(c2ncc(-c3c(F)cc(N4CCN(C)[C@@H](C)C4)c(NC(=O)c4c[nH]c(=O)cc4C(F)(F)F)c3F)cn2)CCO1` [Example 104, N-(6-((S)-3,4-dimethylpiperazin-1-yl)-2,4-difluoro-3-(2-((R)-2-isopropylmorpholino)pyrimidin-5-yl)phenyl)-6-oxo-4-(trifluoromethyl)-1,6-dihydropyridine-3-carboxamide]: 20.3 nM, 2.25 nM and 16.5 nM.
On to `C[C@@H]1CN(c2cc(F)c(-c3ccc(C(N)=O)c(F)c3F)c(F)c2NC(=O)c2c[nH]c(=O)cc2C(F)(F)F)C[C@H](C)N1C` [Example 26, N-(4′-carbamoyl-2,2′,3′,6-tetrafluoro-4-((3S,5R)-3,4,5-trimethylpiperazin-1-yl)-[1,1′-biphenyl]-3-yl)-6-oxo-4-(trifluoromethyl)-1,6-dihydropyridine-3-carboxamide], for which, in experiment [1], the EC50 came to 316 nM. Besides, the Kd in experiment [2] is 4.49 nM. Also, the IC50 in experiment [3] is 22.2 nM.
The matching figures for `CC(C)[C@H]1CN(c2ncc(-c3c(F)cc(N4CCN(C)[C@@H](C)C4)c(NC(=O)c4c[nH]c(=O)cc4C(F)F)c3F)cn2)CCO1` [Example 121, 4-(Difluoromethyl)-N-(6-((S)-3,4-dimethylpiperazin-1-yl)-2,4-difluoro-3-(2-((S)-2-isopropylmorpholino)pyrimidin-5-yl)phenyl)-6-oxo-1,6-dihydropyridine-3-carboxamide]: 15.7 nM, 1.07 nM and 11.9 nM.
Take `C[C@@H]1CN(c2nccc(-c3c(F)cc(N4CCN(C)[C@@H](C)C4)c(NC(=O)c4cn(C)c(=O)cc4C(F)(F)F)c3F)n2)C[C@H](C)O1` [Example 56, N-(3-(2-((2S,6R)-2,6-dimethylmorpholino)pyrimidin-4-yl)-6-((S)-3,4-dimethylpiperazin-1-yl)-2,4-difluorophenyl)-1-methyl-6-oxo-4-(trifluoromethyl)-1,6-dihydropyridine-3-carboxamide]: in experiment [1], the EC50 was 1320 nM. The Kd in experiment [2] came to 9.79 nM. Further, the IC50 in experiment [3] was 36.7 nM.
On to `C[C@@H]1CN(c2ncc(-c3c(F)cc(N4CCN(C)[C@@H](C)C4)c(NC(=O)c4c[nH]c(=O)cc4C(F)F)c3F)cn2)C[C@H](C)O1` [Example 33, 4-(Difluoromethyl)-N-(3-(2-((2S,6R)-2,6-dimethylmorpholino)pyrimidin-5-yl)-6-((S)-3,4-dimethylpiperazin-1-yl)-2,4-difluorophenyl)-6-oxo-1,6-dihydropyridine-3-carboxamide], for which the EC50 in experiment [1] came out at 14.5 nM. For the same compound, the dissociation constant Kd in experiment [2] amounted to 0.61 nM. The IC50 in experiment [3] turned out to be 14.9 nM.
`C[C@H]1CN(c2ncc(-c3c(F)cc(N4CCN(C)[C@@H](C)C4)c(NC(=O)c4c[nH]c(=O)cc4C(F)(F)F)c3F)cn2)CCO1` [Example 60, N-(6-((S)-3,4-dimethylpiperazin-1-yl)-2,4-difluoro-3-(2-((S)-2-methylmorpholino)pyrimidin-5-yl)phenyl)-6-oxo-4-(trifluoromethyl)-1,6-dihydropyridine-3-carboxamide]: the EC50 in experiment [1] was found to be 11.5 nM. Besides, the Kd in experiment [2] was 1.26 nM. In addition, the IC50 in experiment [3] came to 11 nM.
Regarding `C[C@@H]1CN(c2cc(F)c(-c3ccc(N4CCOCC4)c(F)c3)c(F)c2NC(=O)c2c[nH]c(=O)cc2C(F)(F)F)C[C@H](C)N1C` [Example 9, 6-Oxo-N-(2,3′,6-trifluoro-4′-morpholino-4-((3S,5R)-3,4,5-trimethylpiperazin-1-yl)-[1,1′-biphenyl]-3-yl)-4-(trifluoromethyl)-1,6-dihydropyridine-3-carboxamide], the EC50 in experiment [1] came out at 123 nM. In experiment [2], the Kd worked out at 1.33 nM. For the same compound, the IC50 in experiment [3] came to 15.3 nM.
With `COc1cc(N2CCC=C(c3c(F)cc(N4C[C@@H](C)N(C)[C@@H](C)C4)c(NC(=O)c4c[nH]c(=O)cc4C(F)(F)F)c3F)C2)ncn1` [Example 142, N-(2,4-difluoro-3-(1-(6-methoxypyrimidin-4-yl)-1,2,5,6-tetrahydropyridin-3-yl)-6-((3S,5R)-3,4,5-trimethylpiperazin-1-yl)phenyl)-6-oxo-4-(trifluoromethyl)-1,6-dihydropyridine-3-carboxamide], the EC50 in experiment [1] was determined as 38.3 nM. Also, in experiment [2], the dissociation constant Kd is 1.76 nM. Moreover, the IC50 in experiment [3] came out at 13.2 nM.
For the compound `COc1cnc(N2CC=C(c3c(F)cc(N4CCN(C)[C@@H](C)C4)c(NC(=O)c4c[nH]c(=O)cc4C(F)(F)F)c3F)C2)nc1` [Example 51, (S)—N-(6-(3,4-dimethylpiperazin-1-yl)-2,4-difluoro-3-(1-(5-methoxypyrimidin-2-yl)-2,5-dihydro-1H-pyrrol-3-yl)phenyl)-6-oxo-4-(trifluoromethyl)-1,6-dihydropyridine-3-carboxamide], the EC50 in experiment [1] is 111 nM. Besides, the Kd in experiment [2] came to 1.1 nM. The IC50 in experiment [3] amounted to 17 nM.
The matching figures for `COc1cnc(N2CC=C(c3c(F)cc(N4CCN(C)[C@@H](C)C4)c(NC(=O)c4c[nH]c(=O)cc4C(F)F)c3F)CC2)nc1` [Example 48, (S)-4-(difluoromethyl)-N-(6-(3,4-dimethylpiperazin-1-yl)-2,4-difluoro-3-(1-(5-methoxypyrimidin-2-yl)-1,2,3,6-tetrahydropyridin-4-yl)phenyl)-6-oxo-1,6-dihydropyridine-3-carboxamide]: 270 nM, 1.49 nM and 22.5 nM.
For `C[C@@H]1CN(c2cc(F)c(-c3ccc(C(=O)NC(C)(C)CC(C)(C)C)c(F)c3F)c(F)c2NC(=O)c2c[nH]c(=O)cc2C(F)(F)F)C[C@H](C)N1C` [Example 27, 6-Oxo-N-(2,2′,3′,6-tetrafluoro-4′-((2,4,4-trimethylpentan-2-yl)carbamoyl)-4-((3S,5R)-3,4,5-trimethylpiperazin-1-yl)-[,1′-biphenyl]-3-yl)-4-(trifluoromethyl)-1,6-dihydropyridine-3-carboxamide], the EC50 in experiment [1] was found to be 221 nM. Further, the Kd in experiment [2] is 1.13 nM. In addition, in experiment [3], the IC50 is 34.8 nM.
The matching figures for `C[C@@H]1CN(c2cc(F)c(-c3cnc(N4CC5CCC(C4)O5)nc3)c(F)c2NC(=O)c2c[nH]c(=O)cc2C(F)F)C[C@H](C)N1C` [Example 156, N-(3-(2-(8-oxa-3-azabicyclo[3.2.1]octan-3-yl)pyrimidin-5-yl)-2,4-difluoro-6-((3S,5R)-3,4,5-trimethylpiperazin-1-yl)phenyl)-4-(difluoromethyl)-6-oxo-1,6-dihydropyridine-3-carboxamide]: 81.2 nM, 1.96 nM and 15.4 nM.
`C[C@@H]1CN(c2cc(F)c(C3=CCN(c4ncc(F)cn4)C3)c(F)c2NC(=O)c2c[nH]c(=O)cc2C(F)(F)F)C[C@H](C)N1C` [Example 147, N-(2,4-difluoro-3-(1-(5-fluoropyrimidin-2-yl)-2,5-dihydro-1H-pyrrol-3-yl)-6-((3S,5R)-3,4,5-trimethylpiperazin-1-yl)phenyl)-6-oxo-4-(trifluoromethyl)-1,6-dihydropyridine-3-carboxamide]: the EC50 in experiment [1] turned out to be 37.6 nM. In addition, the Kd in experiment [2] was determined as 0.71 nM. Further, in experiment [3], the IC50 is 19.5 nM.
`C[C@@H]1CN(c2ncc(-c3c(F)cc(N4CCN(C)[C@@H](C)C4)c(NC(=O)c4ccc(F)cc4C(F)(F)F)c3F)cn2)C[C@@H](C)O1` [Example 167, N-(3-(2-((2R,6R)-2,6-dimethylmorpholino)pyrimidin-5-yl)-6-((S)-3,4-dimethylpiperazin-1-yl)-2,4-difluorophenyl)-4-fluoro-2-(trifluoromethyl)benzamide Formic Acid Salt]: the EC50 in experiment [1] amounted to 75.5 nM. Also, the Kd in experiment [2] was found to be 0.66 nM. For the same compound, the IC50 in experiment [3] stood at 11.5 nM.
In the case of `C[C@@H]1CN(c2cc(F)c(-c3ccc4c(c3)OCO4)c(F)c2NC(=O)c2c[nH]c(=O)cc2C(F)(F)F)C[C@H](C)N1C` [Example 71, N-(3-(benzo[d][1,3]dioxol-5-yl)-2,4-difluoro-6-((3S,5R)-3,4,5-trimethylpiperazin-1-yl)phenyl)-6-oxo-4-(trifluoromethyl)-1,6-dihydropyridine-3-carboxamide], in experiment [1], the EC50 was found to be 64.4 nM. In addition, the Kd in experiment [2] is 1.65 nM. For the same compound, in experiment [3], the IC50 is 15.1 nM.
Consider `C[C@H]1CN(c2cc(F)c(C3=CCN(c4ccnc(C#N)n4)CC3)c(F)c2NC(=O)c2c[nH]c(=O)cc2C(F)F)CCN1C` [Example 108, (S)—N-(3-(1-(2-cyanopyrimidin-4-yl)-1,2,3,6-tetrahydropyridin-4-yl)-6-(3,4-dimethylpiperazin-1-yl)-2,4-difluorophenyl)-4-(difluoromethyl)-6-oxo-1,6-dihydropyridine-3-carboxamide], for which the EC50 in experiment [1] was 29.9 nM. The Kd in experiment [2] was determined as 1.65 nM. The IC50 in experiment [3] was 14.2 nM.
